Laboratory results: ChEMBL document CHEMBL5653627 (J Neurochem, 2017)
Active and inactive are the calls of the source. The calls are words filed in the database; no cut-off is given here.

Experiments:
SMA-540 [1] = assay: Antitumor activity against mouse SMA-540 cells xenografted in VM/Dk mouse assessed as decrease in number of CD31-positive intra-tumoral vessels in tumor at 100 mg/kg,po daily by immunohistochemistry analysis; type: functional, organism-based
[2] = Toxicity in VM/Dk mouse xenografted with mouse SMA-560 cells assessed as survival rate at 100 mg/kg,po daily with 12 Gy irradition after 2days of treatment initiation (Rvb=30%); type: organism-based; conditions: in vivo, 48 h
SMA-497 [3] = assay: Induction of apoptosis in mouse SMA-497 cells assessed as live cells at 0.1 uM incubated for 72 hrs by Annexin V-FITC/PI staining based flow cytometric analysis (reference value: 83.4%); type: functional
SMA-497 [4] = assay: Induction of apoptosis in mouse SMA-497 cells assessed as late apoptotic cells at 0.1 uM incubated for 72 hrs by Annexin V-FITC/PI staining based flow cytometric analysis (reference value: 1.86%); type: functional
SMA-560 [5] = assay: Induction of cell cycle arrest in mouse SMA-560 cells assessed as accumulation at S phase at 0.1 uM incubated for 72 hrs by propidium iodide/RNase staining based flow cytomtery (Rvb= 2%); type: functional
SMA-540 [6] = assay: In vivo inhibition of TIE-2 in VM/Dk mouse xenografted with mouse SMA-540 cells assessed as decrease in TIE-2 expression in brain blood vessels at 100 mg/kg,po daily by immunohistochemistry analysis; type: functional, organism-based
SMA-560 [7] = assay: Anti-clonogenicic activity in mouse SMA-560 cells assessed as reduction in colony formation at 0.001 to 10 uM and measured after 10 days by MTT based clonogenic survival assay; type: functional, cell-based; conditions: dose 0.001-10 µM, time 10.0 day
SMA-560 [8] = assay: Anti-clonogenicic activity in mouse SMA-560 cells assessed as reduction in colony formation at 0.1 to 1 uM preincubated for 6 hrs followed by 1 to 9 Gy irradiation with and measured after 10 days by MTT based clonogenic survival assay; type: functional, cell-based; conditions: dose 0.1-1 µM, time 246.0 hrs
SMA-497 [9] = assay: In vivo inhibition of TIE-2 in VM/Dk mouse xenografted with mouse SMA-497 cells assessed as decrease in TIE-2 expression in brain blood vessels at 100 mg/kg,po daily by immunohistochemistry analysis; type: functional, organism-based
SMA-497 [10] = assay: Anti-clonogenicic activity in mouse SMA-497 cells assessed as reduction in colony formation at 0.1 to 1 uM preincubated for 6 hrs followed by 1 to 9 Gy irradiation with and measured after 10 days by MTT based clonogenic survival assay; type: functional, cell-based; conditions: dose 0.1-1 µM, time 246.0 hrs
[11] = Toxicity in VM/Dk mouse xenografted with mouse SMA-497 cells assessed as survival rate at 100 mg/kg,po daily (Rvb=14 to 15%); type: organism-based; conditions: in vivo
SMA-560 [12] = assay: Antitumor activity against mouse SMA-560 cells xenografted in VM/Dk mouse assessed as decrease in number of CD31-positive intra-tumoral vessels in tumor at 100 mg/kg,po daily by immunohistochemistry analysis; type: functional, organism-based
[13] = Toxicity in C57Bl/6 mouse xenografted with mouse GL261 cells assessed as survival rate at 100 mg/kg,po daily (Rvb=13%); type: organism-based; conditions: in vivo
SMA-497 [14] = assay: Induction of cell cycle arrest in mouse SMA-497 cells assessed as accumulation at G2/M phase at 0.1 uM incubated for 72 hrs by propidium iodide/RNase staining based flow cytomtery (Rvb= 14%); type: functional
GL261 = assay: Anti-clonogenicic activity in mouse GL261 cells assessed as reduction in colony formation at 0.001 to 10 uM and measured after 10 days by MTT based clonogenic survival assay; type: functional, cell-based; conditions: dose 0.001-10 µM, time 10.0 day
SMA-540 [15] = assay: Antitumor activity against mouse SMA-540 cells xenografted in VM/Dk mouse assessed as increase in number of tumor-infiltrating CD11b positive monocytes/microglia in tumor at 100 mg/kg,po daily by immunohistochemistry analysis; type: functional, organism-based
[16] = Toxicity in VM/Dk mouse xenografted with mouse SMA-497 cells assessed as survival rate at 100 mg/kg,po daily with 12 Gy irradition after 2days of treatment initiation (Rvb=17%); type: organism-based; conditions: in vivo, 48 h
SMA-560 [17] = assay: In vivo inhibition of TIE-2 in VM/Dk mouse xenografted with mouse SMA-560 cells assessed as decrease in TIE-2 expression in brain blood vessels at 100 mg/kg,po daily with 12 Gy irradition after 2days of treatment initiation by immunohistochemistry analysis; type: functional, organism-based
SMA-497 [18] = assay: Antitumor activity against mouse SMA-497 cells xenografted in VM/Dk mouse assessed as decrease in tumor volume at 100 mg/kg,po daily by H and E staining based microscopy; type: functional, organism-based
[19] = target: T1, Discoidin domain-containing receptor 2 (Homo sapiens, UniProt Q16832); assay: Binding affinity to DDR2 (unknown origin) assessed as dissociation constant by KINOME scan assay
T1 sequence (Q16832 whole entry): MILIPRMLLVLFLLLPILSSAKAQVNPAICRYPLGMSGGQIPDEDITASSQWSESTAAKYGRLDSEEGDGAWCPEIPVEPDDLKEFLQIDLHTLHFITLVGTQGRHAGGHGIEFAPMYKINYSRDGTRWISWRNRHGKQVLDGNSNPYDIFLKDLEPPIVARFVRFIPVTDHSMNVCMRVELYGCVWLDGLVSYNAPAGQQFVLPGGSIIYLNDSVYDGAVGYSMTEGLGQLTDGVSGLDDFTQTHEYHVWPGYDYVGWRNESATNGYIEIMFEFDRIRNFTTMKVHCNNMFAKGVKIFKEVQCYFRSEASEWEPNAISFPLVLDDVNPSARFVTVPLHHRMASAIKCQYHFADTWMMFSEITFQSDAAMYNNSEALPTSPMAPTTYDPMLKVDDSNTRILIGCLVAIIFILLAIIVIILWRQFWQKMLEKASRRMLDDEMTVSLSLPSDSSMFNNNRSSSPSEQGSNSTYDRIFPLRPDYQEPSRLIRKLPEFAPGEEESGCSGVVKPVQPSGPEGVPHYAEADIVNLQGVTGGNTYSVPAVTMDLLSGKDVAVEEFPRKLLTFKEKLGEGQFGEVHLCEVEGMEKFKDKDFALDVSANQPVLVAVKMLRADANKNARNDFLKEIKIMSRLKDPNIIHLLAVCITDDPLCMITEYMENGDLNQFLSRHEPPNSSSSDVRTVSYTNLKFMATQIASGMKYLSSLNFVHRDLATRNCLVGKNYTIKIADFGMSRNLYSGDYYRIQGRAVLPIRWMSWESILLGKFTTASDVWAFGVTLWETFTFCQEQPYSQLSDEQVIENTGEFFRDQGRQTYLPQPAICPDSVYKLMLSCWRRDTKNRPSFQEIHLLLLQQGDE

[20] = Toxicity in VM/Dk mouse xenografted with mouse SMA-560 cells assessed as survival rate at 100 mg/kg,po daily (Rvb=13 to 20%); type: organism-based; conditions: in vivo
SMA-497 [21] = assay: Induction of cell cycle arrest in mouse SMA-497 cells assessed as accumulation at G0/G1 phase at 0.1 uM incubated for 72 hrs by propidium iodide/RNase staining based flow cytomtery (Rvb= 76%); type: functional
SMA-497 [22] = assay: In vivo inhibition of TIE-2 in VM/Dk mouse xenografted with mouse SMA-497 cells assessed as decrease in TIE-2 expression in brain blood vessels at 100 mg/kg,po daily with 12 Gy irradition after 2days of treatment initiation by immunohistochemistry analysis; type: functional, organism-based

In the case of `Cc1cc(C)c(-n2ccn3nc(-c4cccnc4)cc23)cc1NC(=O)c1cc(C#N)cc(S(F)(F)(F)(F)F)c1` [BAY-826], the Activity (SMA-540 [1]) is reported as “inactive”, the Survival [2] is reported as 33.5% and the Activity (SMA-497 [3]) is reported as 91.4%. For the same molecule, the Activity (SMA-497 [4]) was 0.3%, the Activity (SMA-560 [5]) was 3% and the inhibition (SMA-540 [6]) was “Active”. For the same molecule, the Activity (SMA-560 [7]) was “inactive”, the Activity (SMA-560 [8]) was “inactive” and the inhibition (SMA-497 [9]) was “Active”. For the same molecule, the Activity (SMA-497 [10]) was “inactive”, the Survival [11] was 17% and the Activity (SMA-560 [12]) was “Active”. The Survival [13] was 15%, the Activity (SMA-497 [14]) was 10% and the Activity (GL261) was “inactive”. The Activity (SMA-540 [15]) was “Active”, the Survival [16] was 17% and the inhibition (SMA-560 [17]) was “Active”. For the same molecule, the Activity (SMA-497 [18]) was “inactive”, the Kd [19] was 1.3 nM and the Survival [20] was 15%. For the same molecule, the Activity (SMA-497 [21]) was 66% and the inhibition (SMA-497 [22]) was “Active”.
